Assay results: patent US4217357A, “Inhibition of thromboxane synthetase with 3-(imidazol-1-ylalkyl)indoles” (Pfizer Inc., priority 1978, dated 1980)

Tests used:
prostacyclin synthetase [1] = biological target: T1, prostacyclin synthetase (Sus scrofa, UniProt A0A5G2QT35); conditions: pre-incubation of the enzyme with the selective PGI2 synthetase inhibitor; cited from earlier work
T1 construct: Pig aorta microsomes; from tissue; host or cells: pig aorta microsomes
T1 sequence (A0A5G2QT35 1-497): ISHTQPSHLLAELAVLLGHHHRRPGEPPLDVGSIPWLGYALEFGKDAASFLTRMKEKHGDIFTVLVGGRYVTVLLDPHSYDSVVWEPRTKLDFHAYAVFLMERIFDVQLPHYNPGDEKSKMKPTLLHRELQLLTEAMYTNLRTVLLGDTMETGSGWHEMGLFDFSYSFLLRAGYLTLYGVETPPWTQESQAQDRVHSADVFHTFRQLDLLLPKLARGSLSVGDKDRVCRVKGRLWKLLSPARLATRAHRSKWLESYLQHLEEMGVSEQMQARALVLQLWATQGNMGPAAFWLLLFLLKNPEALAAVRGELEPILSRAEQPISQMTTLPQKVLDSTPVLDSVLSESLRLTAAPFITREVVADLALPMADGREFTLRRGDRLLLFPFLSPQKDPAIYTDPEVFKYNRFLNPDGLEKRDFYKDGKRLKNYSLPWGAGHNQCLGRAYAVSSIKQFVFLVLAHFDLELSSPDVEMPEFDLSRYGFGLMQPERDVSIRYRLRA

cyclo-oxygenase = biological target: T2, cyclo-oxygenase (Ovis aries, UniProt P05979); assay: Cyclo-oxygenase in vitro enzyme assay; type: biochemical; conditions: ram seminal vesicle microsomes, arachidonic acid 100 μM, 22° C., 1 min; 5 min pre-incubation; read-out: Concentration causing 50% inhibition of (2) cyclo-oxygenase
T2 construct: Ram seminal vesicle microsomes; from tissue; host or cells: ram seminal vesicle microsomes
T2 sequence (P05979 25-600): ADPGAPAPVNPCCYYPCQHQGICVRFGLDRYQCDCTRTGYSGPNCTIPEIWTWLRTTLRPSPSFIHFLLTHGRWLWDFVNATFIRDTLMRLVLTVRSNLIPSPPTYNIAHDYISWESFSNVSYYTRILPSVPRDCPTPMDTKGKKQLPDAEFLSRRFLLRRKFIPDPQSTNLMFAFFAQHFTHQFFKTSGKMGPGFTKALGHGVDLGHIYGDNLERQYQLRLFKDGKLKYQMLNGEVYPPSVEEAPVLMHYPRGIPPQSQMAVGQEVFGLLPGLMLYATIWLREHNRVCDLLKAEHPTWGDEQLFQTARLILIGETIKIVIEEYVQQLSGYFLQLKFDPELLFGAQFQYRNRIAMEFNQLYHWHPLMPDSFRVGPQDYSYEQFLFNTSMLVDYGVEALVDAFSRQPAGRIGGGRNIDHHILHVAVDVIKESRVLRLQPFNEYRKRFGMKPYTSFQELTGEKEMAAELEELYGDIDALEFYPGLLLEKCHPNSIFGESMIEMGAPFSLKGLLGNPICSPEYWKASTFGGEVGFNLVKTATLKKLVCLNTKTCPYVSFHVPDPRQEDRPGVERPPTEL
Experimental: The effect of the compounds of the formula (I) on the thromboxane synthetase enzyme, and the prostacyclin synthetase and cyclo-oxygenase enzymes has been measured by the following in vitro enzyme assay tests:
Ram seminal vesicle microsomes (Biochemistry, 1971, 10, 2372) are incubated with arachidonic acid (100 μM) at 22° C. for a period of one minute so as to produce PGH2, and aliquots of this reaction mixture are then injected into a stream of Krebs-bicarbonate at 37° C. [containing a mixture of antagonists (Nature, […], 218, 1135) and indomethacin (Brit. J. Pharmacol., 1972, 45, 451)] which is superfusing a spirally-cut rabbit aorta strip (Nature, 1969, 223, 29). The ability of a compound to inhibit the enzyme is measured by comparing the increases in isometric tension produced by PGH2 in the absence of the test compound and again, following pre-incubation of the enzyme with the test compound for a period of five minutes.

thromboxane synthetase = biological target: T3, thromboxane synthetase (Homo sapiens, UniProt P24557); assay: Thromboxane A2 (TxA2) synthetase in vitro enzyme assay; type: biochemical; conditions: for IC50: indomethacin-pretreated human platelet microsomes, PGH2, 0° C., 2 min, 5 min pre-incubation, read-out: Concentration causing 50% inhibition of (1) thromboxane synthetase; for Ratio of (3) to (1): prostacyclin synthetase / thromboxane synthetase 50% inhibition concentrations
T3 construct: Indomethacin-pretreated human platelet microsomes; from tissue; host or cells: human platelet microsomes
T3 sequence (P24557 1-533): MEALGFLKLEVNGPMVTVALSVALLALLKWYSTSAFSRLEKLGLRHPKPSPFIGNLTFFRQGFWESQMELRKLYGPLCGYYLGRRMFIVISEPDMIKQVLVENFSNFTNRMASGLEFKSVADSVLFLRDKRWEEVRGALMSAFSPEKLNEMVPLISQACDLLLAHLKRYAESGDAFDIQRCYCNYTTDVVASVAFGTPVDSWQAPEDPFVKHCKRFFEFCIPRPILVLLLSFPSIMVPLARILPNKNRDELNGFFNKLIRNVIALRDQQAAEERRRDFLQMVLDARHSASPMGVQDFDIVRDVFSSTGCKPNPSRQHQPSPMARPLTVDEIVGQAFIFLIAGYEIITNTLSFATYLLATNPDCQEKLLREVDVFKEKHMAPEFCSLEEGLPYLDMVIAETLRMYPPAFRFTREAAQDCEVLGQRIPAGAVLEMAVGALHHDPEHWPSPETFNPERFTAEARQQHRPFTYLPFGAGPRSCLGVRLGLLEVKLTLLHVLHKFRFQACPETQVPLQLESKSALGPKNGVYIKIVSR
Experimental: Indomethacin-pretreated human platelet microsomes (Science, 1976, 193, 163) are incubated with PGH2 (produced as described in test No. 1) at 0° C. for a period of two minutes, and aliquots of the reaction mixture are then superfused over two rabbit aorta spirals which are separated by a delay coil (2 min.). The latter is required in order to allow for the selective decay of the more unstable thromboxane A2 (Proc. Nat. Acad. Sci., 1975, 72, 2994), thereby enabling separate measurement of the increased isometric tension due to the TxA2 formed and the PGH2 remaining to take place. The test compound is then pre-incubated with the enzyme for a period of five minutes, and its ability to inhibit the thromboxane synthetase enzyme is measured as its reduction of the TxA2 component of the isometric tension.

prostacyclin synthetase [2] = biological target: T1, prostacyclin synthetase; assay: Prostacyclin (PGI2) synthetase in vitro enzyme assay; type: biochemical; conditions: pig aorta microsomes, PGH2, 22° C., 30 seconds; 5 min pre-incubation; read-out: Concentration causing 50% inhibition of (3) prostacyclin synthetase
cyclo-oxygenase enzyme = conditions: in words; cited from earlier work
rabbit = conditions: intravenous arachidonic acid, rabbits; cited from earlier work
[3] = test system: human blood platelet aggregation; conditions: variety of aggregating agents; cited from earlier work
stroke and heart attack = conditions: clinical evaluation; cited from earlier work
aggregation of platelets = conditions: abdominal aorta of rats in vivo; cited from earlier work

CCCCCC(/C=C/C=C\C/C=C\C/C=C\CCCC(=O)O)OO (centres unmarked) [15-hydroperoxy-arachidonic acid]
prevention of the decrease in PGH2-induced tension (prostacyclin synthetase [1]): prevented completely

COc1ccc2[nH]c(C)c(Cn3ccnc3)c2c1 [Example V, 3-(imidazol-1-ylmethyl)-5-methoxy-2-methylindole]
IC50 (cyclo-oxygenase): > 100000 nM
IC50 (thromboxane synthetase): 62 nM
Ratio of (3) to (1) (thromboxane synthetase): 65
IC50 (prostacyclin synthetase [2]): 4000 nM

Cc1cccc2c(Cn3ccnc3)c[nH]c12 [Example X, 3-(imidazol-1-ylmethyl)-7-methylindole]
IC50 (cyclo-oxygenase): > 100000 nM
IC50 (thromboxane synthetase): 8.4 nM
Ratio of (3) to (1) (thromboxane synthetase): > 12,000
IC50 (prostacyclin synthetase [2]): > 100000 nM

O=C(c1ccccc1)n1cc(Cn2ccnc2)c2ccccc21 [Example XL, 1-benzoyl-3-(imidazol-1-ylmethyl)indole]
IC50 (cyclo-oxygenase): > 100000 nM
IC50 (thromboxane synthetase): 2 nM
Ratio of (3) to (1) (thromboxane synthetase): 850
IC50 (prostacyclin synthetase [2]): 1700 nM

Clc1ccccc1-c1[nH]c2ccccc2c1Cn1ccnc1 [Example XX, 2-(o-chlorophenyl)-3-(imidazol-1-ylmethyl)indole]
IC50 (cyclo-oxygenase): > 100000 nM
IC50 (thromboxane synthetase): 3 nM
Ratio of (3) to (1) (thromboxane synthetase): 13,000
IC50 (prostacyclin synthetase [2]): 40000 nM

Cl.c1ccc(Cn2cc(Cn3ccnc3)c3ccccc32)cc1 [Example XXVI, 1-benzyl-3-(imidazol-1-ylmethyl)indole hydrochloride]
IC50 (cyclo-oxygenase): > 100000 nM
IC50 (thromboxane synthetase): 65 nM
Ratio of (3) to (1) (thromboxane synthetase): 15
IC50 (prostacyclin synthetase [2]): 1000 nM

Cc1[nH]c2ccccc2c1Cn1ccnc1 [II, 3-(imidazol-1-ylmethyl)-2-methylindole]
IC50 (cyclo-oxygenase): > 100000 nM
IC50 (thromboxane synthetase): 12 nM
Ratio of (3) to (1) (thromboxane synthetase): 2,500
IC50 (prostacyclin synthetase [2]): 30000 nM

c1ccc(-c2[nH]c3ccccc3c2Cn2ccnc2)cc1 [III, 3-(imidazol-1-ylmethyl)-2-phenylindole]
IC50 (cyclo-oxygenase): > 100000 nM
IC50 (thromboxane synthetase): 10 nM
Ratio of (3) to (1) (thromboxane synthetase): 1,200
IC50 (prostacyclin synthetase [2]): 12000 nM

COc1ccc2[nH]cc(Cn3ccnc3)c2c1 [IV, 3-(imidazol-1-ylmethyl)-5-methoxyindole]
IC50 (cyclo-oxygenase): > 100000 nM
IC50 (thromboxane synthetase): 200 nM
Ratio of (3) to (1) (thromboxane synthetase): 500
IC50 (prostacyclin synthetase [2]): 100000 nM

Brc1ccc2[nH]cc(Cn3ccnc3)c2c1 [IX, 5-bromo-3-(imidazol-1-ylmethyl)indole]
IC50 (cyclo-oxygenase): > 100000 nM
IC50 (thromboxane synthetase): 100 nM
Ratio of (3) to (1) (thromboxane synthetase): 170
IC50 (prostacyclin synthetase [2]): 17000 nM

Oc1ccc(-c2[nH]c3ccccc3c2Cn2ccnc2)cc1 [L, 2-(p-hydroxyphenyl)-3-(imidazol-1-ylmethyl)indole]
IC50 (cyclo-oxygenase): > 100000 nM
IC50 (thromboxane synthetase): 6.6 nM
Ratio of (3) to (1) (thromboxane synthetase): 450
IC50 (prostacyclin synthetase [2]): 3000 nM

c1ccc2c(Cn3ccnc3)c(C3CCCCC3)[nH]c2c1 [XII, 2-cyclohexyl-3-(imidazol-1-ylmethyl)indole]
IC50 (cyclo-oxygenase): > 100000 nM
IC50 (thromboxane synthetase): 0.3 nM
Ratio of (3) to (1) (thromboxane synthetase): 70,000
IC50 (prostacyclin synthetase [2]): 21000 nM

c1ccc2c(Cn3ccnc3)c(C3CC3)[nH]c2c1 [XIII, 2-cyclopropyl-3-(imidazol-1-ylmethyl)indole]
IC50 (cyclo-oxygenase): > 100000 nM
IC50 (thromboxane synthetase): 0.1 nM
Ratio of (3) to (1) (thromboxane synthetase): 8,400
IC50 (prostacyclin synthetase [2]): 840 nM

Cc1ccc(-c2[nH]c3ccccc3c2Cn2ccnc2)cc1 [XVII, 3-(imidazol-1-ylmethyl)-2-(p-tolyl)indole]
IC50 (cyclo-oxygenase): > 100000 nM
IC50 (thromboxane synthetase): 0.25 nM
Ratio of (3) to (1) (thromboxane synthetase): 8,000
IC50 (prostacyclin synthetase [2]): 2000 nM

Cn1cc(Cn2ccnc2)c2ccccc21 [XXVII, 3-(imidazol-1-ylmethyl)-1-methylindole]
IC50 (cyclo-oxygenase): > 100000 nM
IC50 (thromboxane synthetase): 2 nM
Ratio of (3) to (1) (thromboxane synthetase): > 50,000
IC50 (prostacyclin synthetase [2]): > 100000 nM

CC(=O)Oc1ccccc1C(=O)O [aspirin]
effect on prostacyclin and thromboxane A2 levels (cyclo-oxygenase enzyme): reduce both the prostacyclin and thromboxane A2 levels
inhibition of the cyclo-oxygenase enzyme (cyclo-oxygenase enzyme): inhibit the cyclo-oxygenase enzyme
protection from the lethal effect of arachidonic acid injection (rabbit): protect the rabbit from the lethal effect of the injection
inhibitory activity in vitro against aggregating agents [3]: show inhibitory activity in vitro
clinical results in prevention of stroke and heart attack (stroke and heart attack): some encouraging results

O=C1C(CC[S+]([O-])c2ccccc2)C(=O)N(c2ccccc2)N1c1ccccc1 (centres unmarked) [sulphinpyrazone]
prevention of aggregation of platelets in extra corporeal loop (aggregation of platelets): prevent the aggregation of platelets
protection from the lethal effect of arachidonic acid injection (rabbit): protect the rabbit from the lethal effect of the injection
inhibitory activity in vitro against aggregating agents [3]: show inhibitory activity in vitro
